Values of other authors as cited in article PMC8391575, “Identification of Novel Cathepsin B Inhibitors with Implications in Alzheimer’s Disease: Computational Refining and Biochemical Evaluation” (Cells, 2021).
Read-outs that look alike come from different tables or passages of the source. Where a SMILES comes first, the peptide text is derived from it.

Tested on: cathepsin B
Details: cited from earlier work
[1] = Figure 1, previously reported inhibitors of cathepsin B, read-out: IC50
[2] = class of the experimental IC50, read-out: Activity Scale Experimental
[3] = Table S1, read-out: IC50: half maximal inhibitory concentration
[4] = read-out: Activity Scale Experimental

Question: For `COc1ccc(-c2cc(=O)c3c(O)cc(O)c(-c4cc(-c5cc(=O)c6c(O)cc(O)cc6o5)ccc4O)c3o2)cc1` [AMF2, 4’’’-methylamentoflavone], which IC50 [1] is on record?
Answer: 1030 nM

Question: Which IC50 [1] does the source give for `O=C1C[C@@H](c2ccc(O)c(-c3c(O)cc(O)c4c(=O)cc(-c5ccc(O)cc5)oc34)c2)Oc2cc(O)cc(O)c21` [AMF4, 2,3-dihydroamentoflavone] here?
Answer: 620 nM

Question: Which IC50 [1] does the source give for `COc1ccc(-c2cc(=O)c3c(O)cc(O)cc3o2)cc1-c1c(O)cc(O)c2c(=O)cc(-c3ccc(O)cc3)oc12` [AMF5, 4’-methylamentoflavone] here?
Answer: 810 nM

Question: Which results are given for `CC(C)CC(NC(=O)C1OC1C(=O)O)C(=O)NCCCCCO` (centres unmarked) [Compound N1, 3-[[1-(5-hydroxypentylamino)-4-methyl-1-oxopentan-2-yl]carbamoyl]oxirane-2-carboxylic acid]?
Answer: pIC50 Experimental (Table 4): 7.14; IC50 [2]: < 300 nM

Question: With `CC(C)C[C@H](NC(=O)C1OC1C(=O)O)C(=O)NCCCC[C@H](N)C(=O)O` (stereo partly drawn) [Compound N2, 3-[[(2S)-1-[[(5S)-5-amino-5-carboxypentyl]amino]-4-methyl-1-oxopentan-2-yl]carbamoyl]oxirane-2-carboxylic acid] as the compound, how does the “pIC50 Experimental” value (Table 4) read?
Answer: 6.89

Question: And the IC50 [3]?
Answer: 130 nM

Question: And the IC50 [2]?
Answer: < 300 nM

Question: Which IC50 [1] does the source give for `O=c1cc(-c2ccc(O)c(-c3c(O)cc(O)c4c(=O)cc(-c5ccc(O)cc5)oc34)c2)oc2cc(O)cc(O)c12` [Compound N3, 8-[5-(5,7-dihydroxy-4-oxochromen-2-yl)-2-hydroxyphenyl]-5,7-dihydroxy-2-(4-hydroxyphenyl)chromen-4-one] here?
Answer: 1170 nM

Question: What about the “pIC50 Experimental” value (Table 4) of the same compound?
Answer: 5.76

Question: What about the IC50 [3] of the same compound?
Answer: 1750 nM

Question: And the IC50 [2]?
Answer: 300 to 2500 nM

Question: Which results are given for `COc1ccc(-c2cc(=O)c3c(O)cc(O)c(-c4cc(-c5cc(=O)c6c(O)cc(OC)cc6o5)ccc4OC)c3o2)cc1` [Compound N4, 5,7-dihydroxy-8-[5-(5-hydroxy-7-methoxy-4-oxochromen-2-yl)-2-methoxyphenyl]-2-(4-methoxyphenyl)chromen-4-one]?
Answer: pIC50 Experimental (Table 4): 6.21; IC50 [3]: 620 nM; IC50 [2]: 300 to 2500 nM

Question: Which results are given for `NCCCCNC(=O)[C@H](Cc1ccccc1)NC(=O)[C@H]1O[C@@H]1C(=O)O` [Compound N6, (2S,3S)-3-({(2S)-1-[(4-Aminobutyl)amino]-1-oxo-3-phenyl-2-propanyl}carbamoyl)-2-oxiranecarboxylic acid]?
Answer: pIC50 Experimental (Table 4): 6.58; IC50 [3]: 260 nM; IC50 [2]: < 300 nM

Question: What does the source list for `NCCCCNC(=O)[C@H](Cc1ccc(O)cc1)NC(=O)[C@H]1O[C@@H]1C(=O)O` [Compound N7, (2S,3S)-3-{[(2S)-1-[(4-Aminobutyl)amino]-3-(4-hydroxyphenyl)-1-oxo-2-propanyl]carbamoyl}-2-oxiranecarboxylic acid]?
Answer: pIC50 Experimental (Table 4): 6.55; IC50 [3]: 280 nM; IC50 [2]: < 300 nM

Question: With `CC1=C(O)C(=O)C=C2C1=CC=C1[C@@]2(C)CC[C@@]2(C)[C@@H]3C[C@](C)(C(=O)O)CC[C@]3(C)CC[C@]12C` [Compound N8, (2R,4aS,6aR,6aS,14aS,14bR)-10-hydroxy-2,4a,6a,6a,9,14a-hexamethyl-11-oxo-1,3,4,5,6,13,14,14b-octahydropicene-2-carboxylic acid] as the compound, how does the “pIC50 Experimental” value (Table 4) read?
Answer: 3.91

Question: And the IC50 [3]?
Answer: 1250 nM

Question: What about the IC50 [2] of the same compound?
Answer: > 2500 nM

Question: And the IC50 (read-out: IC50)?
Answer: 125000 nM

Question: For `CC(C)C[C@H](NC(=O)[C@@H](NC(=O)N[C@@H](Cc1ccccc1)C(=O)O)C1CCN=C(N)N1)C(=O)N[C@H](C=O)Cc1ccccc1` (stereo partly drawn) [Compound N9, (2S)-2-[[(1S)-1-(2-amino-1,4,5,6-tetrahydropyrimidin-6-yl)-2-[[(2S)-4-methyl-1-oxo-1-[[(2S)-1-oxo-3-phenylpropan-2-yl]amino]pentan-2-yl]amino]-2-oxoethyl]carbamoylamino]-3-phenylpropanoic acid], which “pIC50 Experimental” value (Table 4) is on record?
Answer: 5.59

Question: And the IC50 [3]?
Answer: 2600 nM

Question: What about the IC50 [2] of the same compound?
Answer: > 2500 nM

Question: With `O=[N+]([O-])NC1=NCCN1Cc1ccc(Cl)nc1` [Compound N10, N-[1-[(6-chloropyridin-3-yl)methyl]-4,5-dihydroimidazol-2-yl]nitramide] as the compound, how does the “pIC50 Experimental” value (Table 4) read?
Answer: 8.03

Question: What about the IC50 [2] of the same compound?
Answer: < 300 nM

Question: With `Cc1c2ccncc2c(C)c2c1[nH]c1ccccc12` [Compound N12, 5,11-dimethyl-6H-pyrido[4,3-b]carbazole] as the compound, how does the “pIC50 Experimental” value (Table 4) read?
Answer: 7.99

Question: What about the IC50 [2] of the same compound?
Answer: < 300 nM

Question: For `CC(C)C[C@H](NC(=O)[C@H]1O[C@@H]1C(=O)O)C(=O)NCCCCN=C(N)N` [Compound N13, (2S,3S)-3-[[(2S)-1-[4-(diaminomethylideneamino)butylamino]-4-methyl-1-oxopentan-2-yl]carbamoyl]oxirane-2-carboxylic acid], which “pIC50 Experimental” value (Table 4) is on record?
Answer: 8.28

Question: What about the IC50 [2] of the same compound?
Answer: < 300 nM

Question: For `CC(C)CCNC(=O)[C@H](CC(C)C)NC(=O)[C@H]1O[C@@H]1C(=O)O` [Compound N14, (2S,3S)-3-[[(2S)-4-methyl-1-(3-methylbutylamino)-1-oxopentan-2-yl]carbamoyl]oxirane-2-carboxylic acid], which “pIC50 Experimental” value is on record?
Answer: 8.47

Question: What about the IC50 [4] of the same compound?
Answer: < 300 nM

Question: Which results are given for `NC(N)=NCCCCNC(=O)C(Cc1ccccc1)NC(=O)C1OC1C(=O)O` (centres unmarked) [Compound N15, 3-[[1-[4-(diaminomethylideneamino)butylamino]-1-oxo-3-phenylpropan-2-yl]carbamoyl]oxirane-2-carboxylic acid]?
Answer: pIC50 Experimental (Table 4): 6.57; IC50 [3]: 270 nM; IC50 [2]: < 300 nM

Question: Which “pIC50 Experimental” value (Table 4) does the source give for `NC(N)=NCCCCNC(=O)C(Cc1ccc(O)cc1)NC(=O)C1OC1C(=O)O` (centres unmarked) [Compound N16, 3-[[1-[4-(diaminomethylideneamino)butylamino]-3-(4-hydroxyphenyl)-1-oxopropan-2-yl]carbamoyl]oxirane-2-carboxylic acid] here?
Answer: 6.49

Question: What about the IC50 [3] of the same compound?
Answer: 320 nM

Question: And the IC50 [2]?
Answer: 300 to 2500 nM

Question: Which results are given for `COc1cc(O)c2c(=O)cc(-c3ccc(OC)c(-c4c(O)cc(O)c5c(=O)cc(-c6ccc(O)cc6)oc45)c3)oc2c1` [Compound N17, 5,7-dihydroxy-8-[5-(5-hydroxy-7-methoxy-4-oxochromen-2-yl)-2-methoxyphenyl]-2-(4-hydroxyphenyl)chromen-4-one]?
Answer: pIC50 Experimental (Table 4): 6.26; IC50 [3]: 550 nM; IC50 [2]: 300 to 2500 nM

Question: For `COc1cc(OC)cc(-c2cc3cnc(N)nc3nc2NC(=O)NC(C)(C)C)c1` [Compound N18, 1-[2-amino-6-(3,5-dimethoxyphenyl)pyrido[2,3-d]pyrimidin-7-yl]-3-tert-butylurea], which “pIC50 Experimental” value (Table 4) is on record?
Answer: 6.24

Question: What about the IC50 [3] of the same compound?
Answer: 580 nM

Question: What about the IC50 [2] of the same compound?
Answer: 300 to 2500 nM

Question: With `CC(=O)N[C@@H](CC(C)C)C(=O)N[C@@H](CC(C)C)C(=O)N[C@H](C=O)CCCN=C(N)N` [Compound N19, 2-acetamido-N-[1-[[5-(diaminomethylideneamino)-1-oxopentan-2-yl]amino]-4-methyl-1-oxopentan-2-yl]-4-methylpentanamide; 2,2,2-trifluoroacetic acid] as the compound, how does the “pIC50 Experimental” value (Table 4) read?
Answer: 6.36

Question: What about the IC50 [3] of the same compound?
Answer: 440 nM

Question: And the IC50 [2]?
Answer: 300 to 2500 nM

Question: For `COc1cc(O)c2c(=O)cc(-c3ccc(O)c(-c4c(O)cc(O)c5c(=O)cc(-c6ccc(O)cc6)oc45)c3)oc2c1` [Compound N21, 5,7-dihydroxy-8-[2-hydroxy-5-(5-hydroxy-7-methoxy-4-oxochromen-2-yl)phenyl]-2-(4-hydroxyphenyl)chromen-4-one], which “pIC50 Experimental” value (Table 4) is on record?
Answer: 5.77

Question: What about the IC50 [3] of the same compound?
Answer: 1680 nM

Question: What about the IC50 [2] of the same compound?
Answer: 300 to 2500 nM

Question: With `Cn1ncnc2c(=O)n(C)c(=O)nc1-2` [Compound N22, 1,6-dimethylpyrimido[5,4-e][1,2,4]triazine-5,7-dione] as the compound, how does the “pIC50 Experimental” value (Table 4) read?
Answer: 7.34

Question: What about the IC50 [2] of the same compound?
Answer: < 300 nM

Question: Which “pIC50 Experimental” value (Table 4) does the source give for `CCOC(=O)[C@H]1O[C@@H]1C(=O)N[C@H](C(=O)N1CCC[C@H]1C(=O)O)[C@@H](C)CC` [Compound S2, (2S)-1-[(2S,3S)-2-[[(2S,3S)-3-ethoxycarbonyloxirane-2-carbonyl]amino]-3-methylpentanoyl]pyrrolidine-2-carboxylic acid] here?
Answer: 8.55

Question: What about the IC50 [2] of the same compound?
Answer: < 300 nM

Question: Which results are given for `CC(=O)NC(CC(C)C)C(=O)NC(C(=O)NC(C=O)CCCCN)C(C)C` (stereo not drawn) [Compound S3, 2-acetamido-N-[1-[(6-amino-1-oxohexan-2-yl)amino]-3-methyl-1-oxobutan-2-yl]-4-methylpentanamide] (Ac-Leu-Val-Lys-aldehyde; configuration not given here)?
Answer: pIC50 Experimental (Table 4): 8.4; IC50 [2]: < 300 nM

Question: What does the source list for `CC(NC(=O)C(Cc1ccccc1)NC(=O)OCc1ccccc1)C([O-])=C[N+]#N` (centres unmarked) [Compound S4, 1-diazonio-3-[[3-phenyl-2-(phenylmethoxycarbonylamino)propanoyl]amino]but-1-en-2-olate]?
Answer: pIC50 Experimental (Table 4): 8.03; IC50 [2]: < 300 nM

Question: For `Nc1nonc1-c1nc2ccccc2n1Cc1ccc(F)cc1` [Compound S5, 4-[1-[(4-fluorophenyl)methyl]benzimidazol-2-yl]-1,2,5-oxadiazol-3-amine], which “pIC50 Experimental” value (Table 4) is on record?
Answer: 4.47

Question: And the IC50 [2]?
Answer: > 2500 nM

Question: Which results are given for `Cc1ccc(S(=O)(=O)n2nc(OC(=O)c3cccs3)cc2N)cc1` [Compound S7, [5-amino-1-(4-methylphenyl)sulfonylpyrazol-3-yl] thiophene-2-carboxylate]?
Answer: pIC50 Experimental (Table 4): 5.7; IC50 [3]: 1990 nM; IC50 [2]: 300 to 2500 nM

Question: With `COc1ccc(S(=O)(=O)n2nc(OC(=O)c3ccc(C)cc3)cc2N)cc1` [Compound S8] as the compound, how does the “pIC50 Experimental” value (Table 4) read?
Answer: 4.91

Question: And the IC50 [2]?
Answer: > 2500 nM

Question: Which “pIC50 Experimental” value does the source give for `CCn1nc(-c2ccccc2)nc2c(=O)n(C)c(=O)nc1-2` [Compound S9, 1-ethyl-6-methyl-3-phenylpyrimido[5,4-e][1,2,4]triazine-5,7-dione] here?
Answer: 7.15

Question: What about the IC50 [4] of the same compound?
Answer: < 300 nM

Question: What does the source list for `Nc1cc(OC(=O)c2ccco2)nn1S(=O)(=O)c1ccc(F)cc1` [Compound S10, [5-amino-1-(4-fluorophenyl)sulfonylpyrazol-3-yl] furan-2-carboxylate]?
Answer: pIC50 Experimental (Table 4): 5.9; IC50 [2]: 300 to 2500 nM

Question: For `O=C(OC(C(=O)NCc1cccs1)c1ccccn1)c1cccs1` (centres unmarked) [Compound S11, [2-oxo-1-pyridin-2-yl-2-(thiophen-2-ylmethylamino)ethyl]thiophene-2-carboxylate], which “pIC50 Experimental” value (Table 4) is on record?
Answer: 5.2

Question: And the IC50 [2]?
Answer: > 2500 nM
